According to patent US10125134B2 (Mirati Therapeutics, Inc., priority 2016, dated 2018):
pIC50: −log10 of the molar value. Read-outs that look alike come from different tables or passages of the source.

What was measured:
[1] = biological target: KRas G12C (Homo sapiens, UniProt P01116, C118S/C51S/C80L/G12C); assay: KRas G12C Modification Assay (LCMS detection of covalent adduct); assay type: binding
How it was run: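 Cys-light KRas G12C mutant protein incubated with compound in K-Ras assay buffer, reactions quenched at set time points with 25 mM acetic acid and analysed by intact-protein LC/MS on a C-3 column. Deconvoluted mass heights expressed as percent of control (POC) relative to compound-free protein.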

[2] = tested on: NCI-H358 cells (express KRas G12C), Phospho-ERK; assay: Cellular inhibition of KRas G12C: Phospho-ERK in NCI-H358 cells; assay type: cell-based; conditions: Homo sapiens
How it was run: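 IC50 derived by 4-parameter fit of GAPDH-normalized pERK(Thr202/Tyr204) signal, as percent of DMSO control. Signal came from in-cell immunodetection with infrared secondaries after 3 h compound exposure of KRas G12C NCI-H358 cells at 0.5% DMSO.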

[3] = normalized percent of control, tested at 5 μM concentration for 3 hours
[4] = NCI-H358, 3 h, pERK(Thr202/Tyr204) normalized with GAPDH, NCI-H358 cells, 3 hours, read-out: IC50
[5] = pERK(Thr202/Tyr204) normalized with GAPDH, NCI-H358 cells, 3 hours, read-out: IC50

Question: How did the POC [1, 3] turn out when `C=CC(=O)N1CCN(c2nc(OC[C@H]3CCCN3C)nc3c2CCN(c2c(C(F)(F)F)ccc4[nH]ncc24)C3)CC1CC#N` (stereo partly drawn) [Example 243, 2-[4-[2-[[(2R)-1-methylpyrrolidin-2-yl]methoxy]-7-[5-(trifluoromethyl)-1H-indazol-4-yl]-6,8-dihydro-5H-pyrido[3,4-d]pyrimidin-4-yl]-1-prop-2-enoyl-piperazin-2-yl]acetonitrile] was run?
Answer: C (“C”>50% POC)

Question: What about the pIC50 [2, 4] of the same compound?
Answer: 6.00 to 10.00

Question: `C=CC(=O)N1CCN(c2nc(OCCCN3CCOCC3)nc3c2CCN(c2cc(O)ccc2OC(F)(F)F)C3)CC1` [Example 90, 1-(4-(7-(5-hydroxy-2-(trifluoromethoxy)phenyl)-2-(3-morpholinopropoxy)-5,6,7,8-tetrahydropyrido[3,4-d]pyrimidin-4-yl)piperazin-1-yl)prop-2-en-1-one] was tested. Which POC [1, 3] did it give?
Answer: C (“C”>50% POC)

Question: What about the pIC50 [2, 5] of the same compound?
Answer: 6.00 to 10.00

Question: What does the source list for `C=CC(=O)N1CCN(c2nc(OC[C@@H]3CCN(C)C3)nc3c2CCN(c2cc(O)cc4ccccc24)C3)C[C@@H]1CC#N` [Example 350, 2-((S)-1-acryloyl-4-(7-(3-hydroxynaphthalen-1-yl)-2-(((R)-1-methylpyrrolidin-3-yl)methoxy)-5,6,7,8-tetrahydropyrido[3,4-d]pyrimidin-4-yl)piperazin-2-yl)acetonitrile]?
Answer: POC [1, 3]: C (“C”>50% POC); pIC50 [2, 4]: 6.00 to 10.00

Question: Which POC ([1]; 5 µM) does the source give for `C=CC(=O)N1CCN(c2nc(OCCCN3CCOCC3)nc3c2CCN(c2cc(O)cc4sc(C)nc24)C3)CC1` [Example 166, 1-[4-[7-(6-hydroxy-2-methyl-1,3-benzothiazol-4-yl)-2-(3-morpholinopropoxy)-6,8-dihydro-5H-pyrido[3,4-d]pyrimidin-4-yl]piperazin-1-yl]prop-2-en-1-one] here?
Answer: B (key: “A”≤25% POC; “B”>25% POC−≤50% POC; “C”>50% POC)

Question: And the pIC50 ([2]; NCI-H358, 3 h)?
Answer: < 6.00

Question: For `C=CC(=O)N1CCN(c2nc(OC[C@@H]3CCCN3CCOC)nc3c2CCN(c2cc(O)cc4ccccc24)C3)CC1` [Example 144, (5)-1-(4-(7-(3-hydroxynaphthalen-1-yl)-2-((1-(2-methoxyethyl)pyrrolidin-2-yl)methoxy)-5,6,7,8-tetrahydropyrido[3,4-d]pyrimidin-4-yl)piperazin-1-yl)prop-2-en-1-one], which POC [1, 3] is on record?
Answer: C (“C”>50% POC)

Question: What about the pIC50 [2, 4] of the same compound?
Answer: 6.00 to 10.00

Question: How did the POC [1, 3] turn out when `C=CC(=O)N1CCN(c2nc(OC[C@@H]3CCCN3C)nc3c2CCN(c2cnccc2C(F)(F)F)C3)CC1CC#N` (stereo partly drawn) [Example 212, 2-(1-acryloyl-4-(2-(((S)-1-methylpyrrolidin-2-yl)methoxy)-7-(4-(trifluoromethyl)pyridin-3-yl)-5,6,7,8-tetrahydropyrido[3,4-d]pyrimidin-4-yl)piperazin-2-yl)acetonitrile] was run?
Answer: C (“C”>50% POC)

Question: What about the pIC50 [2, 4] of the same compound?
Answer: 6.00 to 10.00

Question: `C=CC(=O)N1CCN(c2nc(OC[C@@H]3CCCN3C)nc3c2CCN(c2cccc4cccnc24)C3)CC1CC#N` (stereo partly drawn) [Example 247, 2-(1-acryloyl-4-(2-(((S)-1-methylpyrrolidin-2-yl)methoxy)-7-(quinolin-8-yl)-5,6,7,8-tetrahydropyrido[3,4-d]pyrimidin-4-yl)piperazin-2-yl)acetonitrile] was tested. Which POC [1, 3] did it give?
Answer: C (“C”>50% POC)

Question: What about the pIC50 [2, 4] of the same compound?
Answer: < 6.00

Question: Which POC [1, 3] does the source give for `C=CC(=O)N1CCN(c2nc(OCCN3CCC(F)(F)C3)nc3c2CCN(c2cc(O)cc4ccccc24)C3)CC1` [Example 139, 1-[4-[2-[2-(3,3-difluoropyrrolidin-1-yl)ethoxy]-7-(3-hydroxy-1-naphthyl)-6,8-dihydro-5H-pyrido[3,4-d]pyrimidin-4-yl]piperazin-1-yl]prop-2-en-1-one] here?
Answer: C (“C”>50% POC)

Question: And the pIC50 [2, 4]?
Answer: < 6.00

Question: Which POC [1, 3] does the source give for `C=CC(=O)N1CCN(c2nc(OC[C@@H]3CCCN3CC(=O)N(C)C)nc3c2CCN(c2cccc4ccccc24)C3)CC1CC#N` (stereo partly drawn) [Example 397, 2-((2S)-2-(((4-(4-acryloyl-3-(cyanomethyl)piperazin-1-yl)-7-(naphthalen-1-yl)-5,6,7,8-tetrahydropyrido[3,4-d]pyrimidin-2-yl)oxy)methyl)pyrrolidin-1-yl)-N,N-dimethylacetamide] here?
Answer: C (“C”>50% POC)

Question: What about the pIC50 [2, 4] of the same compound?
Answer: 6.00 to 10.00

Question: Which results are given for `C=CC(=O)N1CCN(c2ncnc3c2CCN(c2c(C)ccc4[nH]ncc24)C3)CC1` [Example 7, 1-(4-(7-(5-methyl-1H-indazol-4-yl)-5,6,7,8-tetrahydropyrido[3,4-d]pyrimidin-4-yl)piperazin-1-yl)prop-2-en-1-one]?
Answer: POC [1, 3]: A (“A”≤25% POC); pIC50 [2, 4]: < 6.00

Question: `C=CC(=O)N1CCN(c2nc(OCCN(CC)CC)nc3c2CCN(c2cc(O)cc4ccccc24)C3)CC1` [Example 102] was tested. Which POC [1, 3] did it give?
Answer: C (“C”>50% POC)

Question: And the pIC50 [2, 4]?
Answer: 6.00 to 10.00

Question: Which results are given for `C=CC(=O)N1CCN(c2nc(OCCN(C)C)nc3c2CCN(c2cc(O)cc4ccccc24)C3C)CC1` (stereo not shown) [Example 47, 1-(4-(2-(2-(dimethylamino)ethoxy)-7-(3-hydroxynaphthalen-1-yl)-8-methyl-5,6,7,8-tetrahydropyrido[3,4-d]pyrimidin-4-yl)piperazin-1-yl)prop-2-en-1-one]?
Answer: POC [1, 3]: C (“C”>50% POC); pIC50 [2, 5]: < 6.00

Question: For `C=CC(=O)N1CCN(c2nc(OCCN3CCCCC3)nc3c2CCN(c2c(C)ccc4[nH]ncc24)C3)CC1` [Example 164], which POC [1, 3] is on record?
Answer: C (“C”>50% POC)

Question: And the pIC50 [2, 5]?
Answer: < 6.00

Question: How did the POC [1, 3] turn out when `C=CC(=O)N1CCN(c2nc(OCCCN3CCCCC3)nc3c2CCN(c2c(C)ccc4[nH]ncc24)C3)CC1` [Example 160, 1-(4-(7-(5-methyl-1H-indazol-4-yl)-2-(3-(piperidin-1-yl)propoxy)-5,6,7,8-tetrahydropyrido[3,4-d]pyrimidin-4-yl)piperazin-1-yl)prop-2-en-1-one] was run?
Answer: C (“C”>50% POC)

Question: And the pIC50 [2, 5]?
Answer: < 6.00
